{"source": "patent US8048869B2", "about": "“Pharmaceutical composition for use in hormone replacement therapy” (Pantarhei Bioscience B.V., priority 2001, dated 2011)", "key": {"immature rat uterus": {"test_system": "immature rat uterus", "settings": "subcutaneously administered; cited from earlier work"}, "ovariectomized rats": {"test_system": "ovariectomized rats", "assay": "Modified 7-day vaginal cornification bioassay with uterine wet weight", "type": "in vivo, rat", "settings": "OVX rats, po, 7 days", "excerpt": "Uterine weight increase in the rat was chosen as another relevant tissue-specific endpoint to determine the hormonal potency of estetrol (E4), particularly in relationship to its hormonal potency to induce vaginal cornification and to correct for vaginal atrophy. Orally (po) administered E4 was therefore tested in a modified 7-day vaginal cornification bioassay (see also example 1), including uterine wet weight measurements at necropsy, to account for vaginal and uterotrophic effects.\nThe uterotrophic response has been used for many years to assess estrogenic activity. The typical bioassay uses female rats with low levels of endogenous estrogens (e.g., ovariectomized adults or immature animals). In most assay designs the animals are dosed once or twice daily for 3 or 4 days, and twenty-four hours after the final dose the animals are killed, and the uteri excised and weighed. In the current bioassay, vaginal epithelial cornification, and uterine weight gain was evaluated in ovariectomized adult rats over a 7-day period. In this way, two distinct estrogen sensitive parameters could be evaluated concurrently.\nAdult intact female CD rats were ovariectomized to induce estrogen deficiency. […] Castrate vaginal smears are indicative that complete ovariectomy was achieved. […] Animals were orally dosed, once daily for 7 consecutive days with vehicle control (10% ethanol/sesame oil) or either 0.1, 0.3, 1.0, or 3.0 mg/kg/day E4. Daily vaginal lavages continued to be obtained for 7 days after dosing was initiated in order to detect vaginal cornification, as an indication of an estrogenic response. A drop of vaginal washings was placed on a glass slide and examined by light microscopy to detect the presence or absence of cornified epithelial cells. The cells present in the vaginal washings were recorded. Vaginal lavages were obtained prior to dosing on days 0-6 and prior to necropsy on day 7.\nOn Study Day 7, following vaginal lavage 24 hours after the final dose, all rats were euthanized by CO2 asphyxiation. An abdominal incision was made and the uterus excised, blotted and weighed. The occurrence of vaginal cornification, indicative of an estrogenic response, is an “all or none” response. Therefore, data were expressed as the number of rats showing a vaginal estrogenic response (for one or more days) over the number of rats treated (ratio). A Z-test of proportions was used to compare the four test groups to the vehicle control group. Group means±SEM were also calculated for the uterine weights. […] Therefore, a Kruskal-Wallis non-parametric ANOVA on ranks was performed and significant differences across the four treatment groups and the vehicle control were determined using Dunn's method."}, "[1]": {"test_system": "human breast cancer cells (MCF-7)", "settings": "cited from earlier work"}, "OVX-rats": {"test_system": "OVX-rats", "assay": "Indentation test of distal femur (bone biomechanical strength), OVX rat", "type": "in vivo", "settings": "4 weeks; for Energy / Maximum load / Stiffness / Ultimate strength: po, distal femur", "procedure": "The ovariectomized aged rat was used as a model for the human disease osteoporosis. This is an established animal model, recommended by the United States Food and Drug Administration (FDA), to evaluate and assess potential agents for osteoporosis prevention and therapy. The anti-resorptive efficacy of estetrol (E4) was tested by ex vivo measuring total and trabecular bone mineral density and bone strength after 4 weeks of treatment at necropsy. 17α-ethinyl-estradiol (EE) and vehicle (1% ethanol/arachidis oil) served as controls in this bioassay.\nThree months old female Sprague-Dawley rats were either sham-operated (Sham) or ovariectomized (OVX) one day prior to commencement of the dosing study. Animals were anesthetized using a ketamine/xylazine anesthetic mixture and underwent a bilateral ovariectomy or were sham-treated. A section of hair on the dorsal surface was shaved and an incision made overlying the lumbar region of the spine. The skin was separated from the underlying fascia so that a second incision could be made through the abdominal musculature approximately caudal to the kidneys. The ovaries were then exteriorized and removed and the musculature was closed with a single suture. The skin incision was closed using surgical staples.\nTen animals per treatment group were orally dosed once per day for four consecutive weeks. The dosing commenced 1 day after surgical removal of the ovaries and was administered by oral gavage using a syringe and stainless steel gavage needle at doses of 0.1 mg/kg /day EE, or either 2.5, 0.5 or 0.1 mg/kg/day E4. Vehicle control was daily administered to one group of OVX-animals and sham-operated rats. After treatment, anesthetized rats were subjected to cardiac puncture and asphyxiated by CO2 inhalation. Tibiae and femura were removed, cleaned of soft-tissue and fixed and stored in 70% ethanol/saline at 4° C. (tibia) or saline at 4° C. (femura) until fuirther analysis.\nEx vivo evaluation of bone biomechanical strength was performed with an indentation test at the distal femura. Prior to mechanical testing femura were rinsed in cold saline and carefully cleaned of any remaining adherent soft tissue. A 3-mm segment of the distal femoral metaphysis was cut directly proximal to the femoral condyle with a low-speed diamond saw under constant saline irrigation. The load was applied with a cylindrical indenter (with a flat testing face of 1.6 mm diameter) to the center of marrow cavity on the distal face of the segment. The indenter was allowed to penetrate the cavity at a constant displacement of 6 mm/min to a depth of 2 mm before load reversal.\nThe maximum load, stiffness and energy absorbed were determined from load displacement curves. Ultimate strength was calculated by dividing the maximum load by the indenter area. Furthermore, mean ultimate strength values are depicted in FIG. 2. […] Reductions in maximum load, stiffness, energy and ultimate strength were −68%, −68%, −27% and −68%, respectively, clearly accompanying the bone mineral density loss in estrogen deficient rats."}}, "data": [{"smiles": "C[C@]12CC[C@@H]3c4ccc(O)cc4CC[C@H]3[C@@H]1[C@@H](O)[C@@H](O)[C@@H]2O", "note": "[E4, 1,3,5 (10)-estratrien-3,15α,16α,17β-tetrol]", "values": [{"measurement": "uterotrophic activity", "setting": "immature rat uterus", "result": "very weak uterotrophic activity"}, {"measurement": "Uterine weight Mean", "setting": "ovariectomized rats; 0.1 mg/kg/day", "result": 149.2, "unit": "mg"}, {"measurement": "Uterine weight Significantly different from vehicle (P < 0.05)", "setting": "ovariectomized rats; 0.1 mg/kg/day", "result": "no"}, {"measurement": "Vaginal Cornification Non-responders", "setting": "ovariectomized rats; 0.1 mg/kg/day", "result": 0}, {"measurement": "Vaginal Cornification Significantly different from vehicle (P < 0.05)", "setting": "ovariectomized rats; 0.1 mg/kg/day", "result": "yes"}, {"measurement": "Vaginal Cornification responders", "setting": "ovariectomized rats; 0.1 mg/kg/day", "result": 8}, {"measurement": "Uterine weight Mean", "setting": "ovariectomized rats; 0.3 mg/kg/day", "result": 181.2, "unit": "mg"}, {"measurement": "Uterine weight Significantly different from vehicle (P < 0.05)", "setting": "ovariectomized rats; 0.3 mg/kg/day", "result": "no"}, {"measurement": "Vaginal Cornification Non-responders", "setting": "ovariectomized rats; 0.3 mg/kg/day", "result": 0}, {"measurement": "Vaginal Cornification Significantly different from vehicle (P < 0.05)", "setting": "ovariectomized rats; 0.3 mg/kg/day", "result": "yes"}, {"measurement": "Vaginal Cornification responders", "setting": "ovariectomized rats; 0.3 mg/kg/day", "result": 8}, {"measurement": "Uterine weight Mean", "setting": "ovariectomized rats; 1.0 mg/kg/day", "result": 253.7, "unit": "mg"}, {"measurement": "Uterine weight Significantly different from vehicle (P < 0.05)", "setting": "ovariectomized rats; 1.0 mg/kg/day", "result": "yes"}, {"measurement": "Vaginal Cornification Non-responders", "setting": "ovariectomized rats; 1.0 mg/kg/day", "result": 0}, {"measurement": "Vaginal Cornification Significantly different from vehicle (P < 0.05)", "setting": "ovariectomized rats; 1.0 mg/kg/day", "result": "yes"}, {"measurement": "Vaginal Cornification responders", "setting": "ovariectomized rats; 1.0 mg/kg/day", "result": 8}, {"measurement": "Uterine weight Mean", "setting": "ovariectomized rats; 3.0 mg/kg/day", "result": 308.4, "unit": "mg"}, {"measurement": "Uterine weight Significantly different from vehicle (P < 0.05)", "setting": "ovariectomized rats; 3.0 mg/kg/day", "result": "yes"}, {"measurement": "Vaginal Cornification Non-responders", "setting": "ovariectomized rats; 3.0 mg/kg/day", "result": 0}, {"measurement": "Vaginal Cornification Significantly different from vehicle (P < 0.05)", "setting": "ovariectomized rats; 3.0 mg/kg/day", "result": "yes"}, {"measurement": "Vaginal Cornification responders", "setting": "ovariectomized rats; 3.0 mg/kg/day", "result": 8}, {"measurement": "agonistic potency in in vitro cell proliferation, relative to 17β-estradiol", "setting": "[1]", "result": 2, "unit": "%"}, {"measurement": "effect on declines in maximum load, stiffness, energy and ultimate strength", "setting": "OVX-rats; oral treatment, dose-dependent", "result": "prevented the declines in maximum load, stiffness, energy and ultimate strength"}, {"measurement": "Energy", "setting": "OVX-rats; 0.1 mg/kg/day", "result": 0.09, "unit": "mJ"}, {"measurement": "Maximum load", "setting": "OVX-rats; 0.1 mg/kg/day", "result": 1.50, "unit": "N"}, {"measurement": "Stiffness", "setting": "OVX-rats; 0.1 mg/kg/day", "result": 28.00, "unit": "N/mm"}, {"measurement": "Ultimate strength", "setting": "OVX-rats; 0.1 mg/kg/day", "result": 0.80, "unit": "N/mm2"}, {"measurement": "Energy", "setting": "OVX-rats; 0.5 mg/kg/day", "result": 0.31, "unit": "mJ"}, {"measurement": "Maximum load", "setting": "OVX-rats; 0.5 mg/kg/day", "result": 7.25, "unit": "N"}, {"measurement": "Stiffness", "setting": "OVX-rats; 0.5 mg/kg/day", "result": 132.57, "unit": "N/mm"}, {"measurement": "Ultimate strength", "setting": "OVX-rats; 0.5 mg/kg/day", "result": 3.85, "unit": "N/mm2"}]}]}
